Laboratory results reported in PubChem BioAssay (NCI).
Several values for one entry are separate records, joined by “and”; a condition that tells them apart may be missing. Equal entries are not always repeated.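 Growth conditions: 96-well plates. Treatment: test compound, 48 hours, 5 concentrations. Analysis: linear interpolation between bracketing concentrations; unreached endpoints set to highest concentration. GI50 marks 50% less growth. At the TGI there is no net growth.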

How the values were obtained:
Test in all cases: NCI tumour cell line growth inhibition, 48 h
DMS 114 small cell lung = system: DMS 114 small cell lung
DMS 273 small cell lung = system: DMS 273 small cell lung
LXFL 529 NSCLC = system: LXFL 529 NSCLC
RXF-631 renal = system: RXF-631 renal
XF 498 CNS = system: XF 498 CNS
DLD-1 colon = system: DLD-1 colon
HOP-18 NSCLC = system: HOP-18 NSCLC
MDA-N = system: MDA-N
P388 leukemia = system: P388 leukemia
P388/ADR leukemia = system: P388/ADR leukemia
SNB-78 CNS = system: SNB-78 CNS

| Structure (SMILES) | TGI (DMS 114 small cell lung) | TGI (DMS 273 small cell lung) | TGI (LXFL 529 NSCLC) [µM] | TGI (RXF-631 renal) [µM] | TGI (XF 498 CNS) [µM] | TGI (DLD-1 colon) | TGI (HOP-18 NSCLC) [µM] | TGI (SNB-78 CNS) | other results |
| --- | --- | --- | --- | --- | --- | --- | --- | --- | --- |
| CCOC(=O)C1=C(C)N(NC(=O)c2ccccc2)C2(O)CCCC12C(=O)OCC (centres undefined) | > 100 µM | > 100 µM | > 100 | > 100 | > 100 | – | – | – | – |
| Nc1ccn([C@@H]2C=C(CO)[C@@H](O)[C@H]2O)c(=O)n1 | 449 µM and > 625 µM | 218 µM and 62.5 µM | – | – | – | 500 µM and > 625 µM | 500 | 156 µM and > 625 µM | GI50 (DLD-1 colon): 0.0625 µM; GI50 (DMS 114 small cell lung): 0.0677 µM; GI50 (MDA-N): 0.05 µM; TGI (MDA-N): 500 µM; TGI (P388 leukemia): 1.84 µM; TGI (P388/ADR leukemia): 2.19 µM; GI50 (SNB-78 CNS): 63.6 µM; GI50 (XF 498 CNS): < 0.0625 µM |
| CSC(=S)NNC(=O)c1ccncc1 | 28.6 µM | 46.1 µM | 29.3 | > 100 | 50 | 34.6 µM | > 100 | > 100 µM | – |
| O=C1c2ccccc2C(=O)c2nc(-c3ccccc3)c(-c3ccccc3)nc21 | > 100 µM | > 100 µM | > 100 | > 100 | > 100 | > 100 µM | > 100 | > 100 µM | – |
| COC(=O)C1C(=O)O[C@@H](c2ccc(OC)cc2OC)C1C(=O)OC (some centres undefined) | > 100 µM | > 100 µM | > 100 | – | > 100 | > 100 µM | > 100 | > 100 µM | – |
| O=C(O)/C(Cl)=C(\Cl)C(=O)Nc1ccccc1 | – | > 100 µM | > 100 | > 100 | – | > 100 µM | > 100 | > 100 µM | – |
| CC1C(=O)N(C)C2(CO)C(=O)O[C@H](C)C12O (some centres undefined) | > 100 µM | – | – | – | – | > 100 µM | > 100 | > 100 µM | – |
| CCC[CH2][Sn]([CH2]CCC)([S]C1=NCCS1)[S]C1=NCCS1 | 0.435 µM | 2.27 µM | 0.169 | – | 0.678 | 1.31 µM | 2.33 | 0.946 µM | GI50 (DLD-1 colon): 0.275 µM; GI50 (DMS 114 small cell lung): 0.117 µM; GI50 (DMS 273 small cell lung): 0.705 µM; GI50 (HOP-18 NSCLC): 1.12 µM; GI50 (LXFL 529 NSCLC): 0.0423 µM; GI50 (SNB-78 CNS): 0.124 µM; GI50 (XF 498 CNS): 0.159 µM |
| CC1OC(O)CC(OC(=O)c2ccccc2)C1OC(=O)c1ccccc1 (centres undefined) | – | 29.5 µM | 29.8 | – | 34.6 | 28.4 µM | 56.8 | – | – |
| Cc1ccc(S(=O)(=O)N/N=C(\C(=O)Nc2cccc([N+](=O)[O-])c2)c2nc3ccc([N+](=O)[O-])cc3[nH]c2=O)cc1 | 99.1 µM | – | > 100 | – | – | > 100 µM | – | > 100 µM | – |
| O=C(C=Nc1ccccc1C(=O)[O-])c1cccs1.O=C(C=Nc1ccccc1C(=O)[O-])c1cccs1.[Cu+2] | – | – | – | – | – | > 10 µM | – | – | – |
| ON(CCc1ccccn1)Cc1ccccc1 | – | – | – | – | – | – | – | – | TGI (MDA-N): > 100 µM |
| O=C(O)CC1(C(=O)O)CCCCC1 | – | – | – | – | – | – | – | – | TGI (MDA-N): > 100 µM |
| CNC1C(O)CC(OC2C/C=C(\C)C/C(C)=C/C=C/CCC(C)CNC(=O)/C=C/C=C/C2C)OC1C (centres undefined) | 0.402 µM | – | 0.308 | 0.401 | 3.76 | 1.45 µM | 3.08 | 3.43 µM | TGI (MDA-N): 0.367 µM |
| CCOC(=O)c1cc2ncccc2c2ccccc12 | – | – | – | – | – | – | – | – | TGI (MDA-N): > 100 µM |
| CCCCCCCCCC(=O)OCC1OC(n2cc(F)c(=O)[nH]c2=O)C(N)C(OC(=O)CCCCCCCCC)C1O (centres undefined) | 29.6 µM | 38 µM | 30.2 | – | – | – | – | 36.8 µM | – |
| CCC(=C(c1ccc(OCc2ccccc2)cc1)c1ccc(OCc2ccccc2)cc1)c1ccc(OC)cc1 | > 100 µM | > 100 µM | > 100 | – | > 100 | > 100 µM | – | > 100 µM | – |
| O=C(CC1(O)C(=O)Nc2c(Cl)cc(Cl)cc21)c1ccc2ccccc2c1 (centres undefined) | 17.8 µM | 15.2 µM | 21.3 | 20.6 | 25.2 | 26.7 µM | 26.1 | 36.5 µM | – |
